Literature values, collected in patent US20160264934A1, “METHODS FOR MODULATING AND ASSAYING m6A IN STEM CELL POPULATIONS” (THE GENERAL HOSPITAL CORPORATION, priority 2015, published 2016).

Target: ALKBH5 (Homo sapiens, UniProt Q6P6C2)
Conditions: HPLC-based assays

Chain of ALKBH5 (Q6P6C2 whole entry, species assumed): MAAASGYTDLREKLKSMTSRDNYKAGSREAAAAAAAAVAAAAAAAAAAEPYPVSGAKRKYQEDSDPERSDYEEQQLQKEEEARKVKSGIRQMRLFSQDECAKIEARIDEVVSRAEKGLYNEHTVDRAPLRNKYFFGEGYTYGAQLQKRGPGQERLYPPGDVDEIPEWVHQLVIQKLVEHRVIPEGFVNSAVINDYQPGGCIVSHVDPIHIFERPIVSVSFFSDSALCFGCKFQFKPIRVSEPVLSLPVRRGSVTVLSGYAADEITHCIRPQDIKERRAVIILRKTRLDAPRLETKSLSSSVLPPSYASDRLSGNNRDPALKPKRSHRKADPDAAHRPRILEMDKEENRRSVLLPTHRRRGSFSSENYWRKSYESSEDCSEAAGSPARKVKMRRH

Question: With `Cc1ccc(Cl)c(Nc2ccccc2C(=O)O)c1Cl` [meclofenamic acid] as the molecule, how does the “inhibition of ALKBH5” value read?
Answer: no inhibition
